# Earlier results in patent US20240207289A1 (priority 2022, published 2024).
# Biological target: Cannabinoid-2 (CB2R) receptor (Homo sapiens, UniProt P34972)
# Sequence (P34972 whole entry): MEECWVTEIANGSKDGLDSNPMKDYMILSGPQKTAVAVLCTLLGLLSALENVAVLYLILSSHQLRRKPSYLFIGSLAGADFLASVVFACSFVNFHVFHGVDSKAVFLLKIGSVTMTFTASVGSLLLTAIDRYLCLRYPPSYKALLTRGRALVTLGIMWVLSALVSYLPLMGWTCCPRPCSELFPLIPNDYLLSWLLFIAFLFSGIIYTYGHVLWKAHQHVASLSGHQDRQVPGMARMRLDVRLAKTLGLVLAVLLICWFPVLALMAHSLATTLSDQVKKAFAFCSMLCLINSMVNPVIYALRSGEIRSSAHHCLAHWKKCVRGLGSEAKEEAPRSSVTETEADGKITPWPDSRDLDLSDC
structure (smiles),measurement,value
"CCCCCc1cc(O)c2c(c1)OC(C)(C)[C@@H]1CCC(C)=C[C@@H]21 [THC, delta-9-tetrahydrocannabinol]",activity at Cannabinoid-2 receptor,weak partial agonist activity
